# Values of other authors as cited in article PMC9851200, “Multiparameter phenotypic screening for endogenous TFEB and TFE3 translocation identifies novel chemical series modulating lysosome function” (Autophagy, 2022).
# Columns and labels:
# Set-up in all cases: method as in original PKIS2 published data
# [1] = biological target: T1, kinases (KINOMEscan panel) (Homo sapiens, UniProt O76039); settings: kinase CDKL5; Published KINOMEscan; ref original PKIS2 published data; cited from earlier work
# T1 sequence (O76039 1-960): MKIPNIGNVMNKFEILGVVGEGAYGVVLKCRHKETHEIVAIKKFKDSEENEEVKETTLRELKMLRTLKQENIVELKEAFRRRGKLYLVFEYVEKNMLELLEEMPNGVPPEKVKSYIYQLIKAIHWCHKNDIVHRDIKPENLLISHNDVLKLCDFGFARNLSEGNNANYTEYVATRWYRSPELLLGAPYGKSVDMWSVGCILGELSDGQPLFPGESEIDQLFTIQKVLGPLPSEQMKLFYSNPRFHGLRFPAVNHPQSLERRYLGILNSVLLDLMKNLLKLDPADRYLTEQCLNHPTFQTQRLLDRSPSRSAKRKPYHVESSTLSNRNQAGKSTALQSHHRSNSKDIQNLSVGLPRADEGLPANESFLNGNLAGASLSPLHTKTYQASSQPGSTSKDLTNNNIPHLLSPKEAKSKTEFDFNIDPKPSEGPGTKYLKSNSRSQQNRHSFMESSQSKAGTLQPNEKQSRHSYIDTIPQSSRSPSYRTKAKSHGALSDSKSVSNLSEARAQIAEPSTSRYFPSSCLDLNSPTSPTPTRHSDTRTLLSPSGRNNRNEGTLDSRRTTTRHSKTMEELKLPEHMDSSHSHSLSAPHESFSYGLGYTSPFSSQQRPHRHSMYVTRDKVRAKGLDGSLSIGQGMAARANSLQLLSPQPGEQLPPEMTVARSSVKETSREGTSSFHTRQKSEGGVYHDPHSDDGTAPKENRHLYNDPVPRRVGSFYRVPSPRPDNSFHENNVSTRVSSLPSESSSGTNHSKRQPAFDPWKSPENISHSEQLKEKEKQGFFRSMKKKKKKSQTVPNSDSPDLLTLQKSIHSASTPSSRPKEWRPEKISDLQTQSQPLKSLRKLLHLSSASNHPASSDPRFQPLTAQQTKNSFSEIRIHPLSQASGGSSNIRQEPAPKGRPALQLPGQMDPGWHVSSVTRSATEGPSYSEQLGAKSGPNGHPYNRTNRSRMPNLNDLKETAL
# [2] = biological target: T2, kinases (KINOMEscan panel) (Homo sapiens, UniProt P42680); settings: kinase TEC; Published KINOMEscan; ref original PKIS2 published data; cited from earlier work
# T2 sequence (P42680 1-631): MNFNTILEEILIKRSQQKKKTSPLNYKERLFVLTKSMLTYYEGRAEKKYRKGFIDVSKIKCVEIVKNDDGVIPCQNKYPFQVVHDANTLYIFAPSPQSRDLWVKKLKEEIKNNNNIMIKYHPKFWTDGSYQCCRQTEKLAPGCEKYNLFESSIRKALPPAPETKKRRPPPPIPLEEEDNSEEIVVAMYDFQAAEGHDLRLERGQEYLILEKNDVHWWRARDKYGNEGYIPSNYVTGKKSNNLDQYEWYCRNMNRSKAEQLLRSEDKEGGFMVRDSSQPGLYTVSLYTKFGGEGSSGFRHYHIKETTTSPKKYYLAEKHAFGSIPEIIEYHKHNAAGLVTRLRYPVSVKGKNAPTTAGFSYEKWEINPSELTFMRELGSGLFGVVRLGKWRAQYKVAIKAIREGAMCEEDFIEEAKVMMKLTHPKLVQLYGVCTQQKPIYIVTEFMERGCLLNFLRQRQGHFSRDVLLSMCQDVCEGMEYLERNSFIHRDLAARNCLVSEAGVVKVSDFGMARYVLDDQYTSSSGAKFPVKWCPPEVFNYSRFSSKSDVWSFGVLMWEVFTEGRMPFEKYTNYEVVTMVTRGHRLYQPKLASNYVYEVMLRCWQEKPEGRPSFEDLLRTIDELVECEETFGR
# [3] = biological target: kinases (KINOMEscan panel) (Homo sapiens, UniProt Q9HC98); settings: kinase NEK6; Published KINOMEscan; ref original PKIS2 published data; cited from earlier work
# [4] = biological target: T3, kinases (KINOMEscan panel) (Homo sapiens, UniProt Q9NRM7); settings: Published KINOMEscan; ref original PKIS2 published data; cited from earlier work
# T3 sequence (Q9NRM7 1-1088): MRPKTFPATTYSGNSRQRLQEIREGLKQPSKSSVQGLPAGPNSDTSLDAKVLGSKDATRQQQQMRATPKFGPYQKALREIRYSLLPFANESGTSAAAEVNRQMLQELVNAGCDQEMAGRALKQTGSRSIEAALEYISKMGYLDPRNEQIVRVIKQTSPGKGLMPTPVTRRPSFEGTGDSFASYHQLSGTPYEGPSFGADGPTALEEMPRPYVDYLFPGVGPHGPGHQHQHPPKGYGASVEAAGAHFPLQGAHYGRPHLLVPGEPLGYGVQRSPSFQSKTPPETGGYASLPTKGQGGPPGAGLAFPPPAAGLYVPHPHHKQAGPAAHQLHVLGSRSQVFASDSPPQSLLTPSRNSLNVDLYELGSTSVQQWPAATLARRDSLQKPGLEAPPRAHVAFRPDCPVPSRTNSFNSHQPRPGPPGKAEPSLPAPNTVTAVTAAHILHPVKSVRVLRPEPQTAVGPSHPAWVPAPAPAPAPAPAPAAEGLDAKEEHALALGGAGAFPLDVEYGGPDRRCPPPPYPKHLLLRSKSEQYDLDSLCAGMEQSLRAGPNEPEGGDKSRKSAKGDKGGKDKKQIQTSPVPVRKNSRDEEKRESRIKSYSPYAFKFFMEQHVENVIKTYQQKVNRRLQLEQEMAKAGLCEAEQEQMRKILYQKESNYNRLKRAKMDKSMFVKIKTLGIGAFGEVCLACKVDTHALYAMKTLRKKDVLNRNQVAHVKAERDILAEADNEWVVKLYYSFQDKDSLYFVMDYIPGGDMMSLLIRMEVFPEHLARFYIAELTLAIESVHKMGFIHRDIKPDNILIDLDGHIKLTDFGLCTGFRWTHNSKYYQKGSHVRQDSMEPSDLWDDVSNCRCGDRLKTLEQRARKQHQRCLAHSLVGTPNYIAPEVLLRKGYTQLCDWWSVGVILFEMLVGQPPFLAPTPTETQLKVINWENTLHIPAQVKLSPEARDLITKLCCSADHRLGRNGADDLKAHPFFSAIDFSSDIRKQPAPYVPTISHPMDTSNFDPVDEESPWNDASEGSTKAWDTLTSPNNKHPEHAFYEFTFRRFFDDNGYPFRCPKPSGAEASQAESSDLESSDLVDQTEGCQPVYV
# kinases (KINOMEscan panel) (Homo sapiens, UniProt Q9HC98), sequence (Q9HC98 whole entry): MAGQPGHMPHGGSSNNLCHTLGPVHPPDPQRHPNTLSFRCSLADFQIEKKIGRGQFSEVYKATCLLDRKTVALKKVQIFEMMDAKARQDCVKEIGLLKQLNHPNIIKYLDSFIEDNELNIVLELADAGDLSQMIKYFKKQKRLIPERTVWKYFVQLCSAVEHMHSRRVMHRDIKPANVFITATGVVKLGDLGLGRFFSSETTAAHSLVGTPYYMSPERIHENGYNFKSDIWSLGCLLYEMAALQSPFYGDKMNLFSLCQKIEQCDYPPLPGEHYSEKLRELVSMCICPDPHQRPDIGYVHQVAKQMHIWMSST
smiles,measurement,setting,value
Cc1cccc(-c2nc(Nc3ccncc3)c3ccccc3n2)n1 [NK215],KINOMEscan CDKL5,[1],0
same,KINOMEscan TEC,[2],10
same,KINOMEscan NEK6,[3],21
same,KINOMEscan LATS2,[4],0
